Source: article PMC12257394, “Design, Synthesis, and Biological Evaluation of Ferrocenyl–Cyclo-(Gly‑L‑Pro) Hybrids Sensitizing Multidrug-Resistant Cancer Cells to Anticancer Agents” (ACS Medicinal Chemistry Letters, 2025)

Key:
Assay type in all cases: cell-based, human
[1] = Neutral red uptake viability assay, SW620Mito; conditions: human, SW620Mito cells (mitoxantrone-resistant), 72 h, n = 3, read-out: Cytotoxic activity IC50 (95% CI)
Protocol: (§1) In general, compounds 4a–e exerted little or no cytotoxic effect on either SW620 or multidrug-resistant sublines even at 10 μM, with the remarkable exception of SW620C (cisplatin-selected variant of SW620) cells, which turned out to be relatively susceptible toward ferrocenyl 4a–c. […] This trend may reflect steric or electronic contributions to cellular uptake or interaction with intracellular targets. […] However, since E/Z isomeric data are currently available only for compound 4c, this hypothesis requires validation. To quantify this effect, IC50 values were determined (Table ). […]
(§2) The normal lung fibroblast MRC-5 and colorectal adenocarcinoma SW620 cell lines used in this experiment were purchased from American Type Culture Collection (USA) via LGC […]
(§3) Standards. Multidrug-resistant variants of SW620 cells were developed in our laboratory as described previously.10, 11 All cells were cultured under standard conditions (37°C, 5% CO2, 100% humidity) in high-glucose DMEM supplemented with GlutaMaxTM, HEPES (ThermoFisher Scientific, USA), and 10% fetal bovine serum (EURx, Poland). Cells were routinely tested for potential Mycoplasma contamination using the MycoProbe Mycoplasma Detection kit (R&D System, USA).
(§4) In total, 104 cells in 100 µL of complete medium were plated per well of a 96-well plate and left overnight to allow cells to adhere to the surface. Then, the cells were exposed to a desired concentration of tested compound(s). Stock solutions were prepared in DMSO and used immediately. The final DMSO concentration was constant and nontoxic (0.1% v/v). After 70-h incubation, neutral red was added to the final concentration of 1 mM. After another 2 h, the medium was aspirated, and cells were washed twice with PBS. Dye was released using 100 µL of a solubilizer (1% acetic acid in 50% ethanol) on an orbital shaker (10 min). Absorbance was read at 540 nm using EnVision Multilabel Plate Reader (Perkin Elmer, USA). Results were expressed as % of control. The IC50 parameters were calculated using GraphPad Prism version 10 (GraphPad Software, Boston, Massachusetts USA). […]
(§5) All experiments were performed in triplicate (n = 3).

[2] = Neutral red uptake viability assay, SW620E; conditions: human, SW620E cells (etoposide-resistant), 72 h, n = 3, read-out: Cytotoxic activity IC50 (95% CI)
Protocol: as §1, with “To evaluate this aspect, we investigated the viability of SW620 colon cancer cells and their multidrug-resistant variants (overexpressing ABCB1, ABCC1, and ABCG2) exposed to 1 and 10 μM 4a–e using a neutral red uptake assay (Table ). In” for “In”
as §2, §3, §4, §5

[3] = Neutral red uptake viability assay, SW620; conditions: human, SW620 colon cancer cells; SW620, 72 h, n = 3; read-out: Cytotoxic activity IC50 (95% CI)
Protocol: as §1, with “To evaluate this aspect, we investigated the viability of SW620 colon cancer cells and their multidrug-resistant variants (overexpressing ABCB1, ABCC1, and ABCG2) exposed to 1 and 10 μM 4a–e using a neutral red uptake assay (Table ). In” for “In”
as §2, §3, §4, §5

Measured: IC50 at 72 h

O=C1N/C(=C/c2ccccc2)C(=O)N2CCC[C@@H]12 [(S,E)-4e]
> 100 µM: all assays above

O=C1N/C(=C\c2ccccc2)C(=O)N2CCC[C@@H]12 [(S,Z)-4e]
> 100 µM: all assays above
